Each block holds one compound with its values, some of them ahead of it.
System: 941728-121-R-J1-PDC complex spheroid viability
Experiment: Anticancer human tumor 941728-121-R-J1-PDC patient-derived lung adenocarcinoma cell line growth inhibition [RAS]
Conditions: for viability, T/C: stronger effect = lower value
Excerpt: RAS pathway inhibitors in Combinations in Complex Spheroids
A high-throughput screen of multi-cell type tumor spheroids was designed to identify active combinations of RAS pathway inhibitors and targeted small molecules. Complex spheroids include a stromal component modeled by human endothelial cells (HUVEC) and fibroblasts modeled by human mesenchymal stem cells (MSCs). The concentration ranges selected for each drug and investigational agent were based upon clinically achievable concentrations if the clinical Cmax of the agent was known.
Compounds. The drugs and investigational agents: abemaciclib (NSC768073), cobimetinib (NSC768068), divarasib (GDC6063, NSC841802), docetaxel (NSC628503), GDC-1971 (RLY-1971, NSC841576), gemcitabine (NSC613327), inavolisib (NSC800729), ipatasertib (NSC767898), KB-0742 (NSC834161), MRTX-1133 (NSC836407), osimertinib (NSC779217), RMC-4630 (NSC839698), RMC-6236 (NSC851965), RMC-6291 (NSC852671), Ro-3306 (NSC812927), sapanisertib (NSC764658), SN-38 (NSC673596), staurosporine (NSC755774), SY5609 (NSC837396), and tovorafenib (DAY101, NSC766906), were obtained from the National Cancer Institute (NCI) Developmental Therapeutics Program Chemical Repository. The FDA-approved anticancer drug set is available from the NCI Developmental Therapeutics Program. […] The stock solutions were prepared in dimethyl sulfoxide (DMSO, Sigma-Aldrich, St. Louis, MO, cat. D2650) at 800-fold the tested concentration and stored at -70 degrees C prior to their use. All drugs and investigational agents were tested over a range starting from a high concentration at or near the clinical Cmax and decreasing in half-log increments. If the clinical Cmax for an agent had not been determined, the highest concentration tested was 10 microM.
Cell Culture. All cells were maintained in an incubator at 37 degrees C and 5% CO2 with 95% humidity. The PDC lines were cultured according to standard operating procedures established by the NCI PDMR. All PDCs were thawed and cultured in Matrigel-coated flasks prepared with a working solution of 1X Ham's F-12 nutrient mix, without supplementation (Invitrogen, Waltham, MA, cat. 11765054), 100 U/mL penicillin-streptomycin (Invitrogen, cat. 15140122), and 2.5% Matrigel (Corning Inc., Corning, NY, cat. 354248) for the first three passages. The 362531-283-R-J2-PDC and 782815-120-R-J1-PDC lines were cultured in 6C/Colon 1B media, which includes advanced DMEM/F-12 (Thermo Fisher Scientific, cat. 12634028), 10 mM HEPES (Thermo Fisher Scientific, cat. 15630080), 1X GlutaMAX supplement (Thermo Fisher Scientific, cat. 35050061), 0.1 mg/mL primocin (InvivoGen, San Diego, CA, cat. ant-pm-2), 10% defined fetal bovine serum, heat inactivated (HyClone Laboratories Inc., Logan, UT, cat. SH30070.03HI), 50% L-WRN conditioned media (ATCC, cat. CRL-3276), 1.25 mM N-Acetyl-L-cysteine (Sigma-Aldrich, cat. A9165), 10 mM nicotinamide (Sigma-Aldrich, cat. N0636), 1X B-27 supplement (Thermo Fisher Scientific, cat. 17504044), 1X N-2 supplement (Thermo Fisher Scientific, cat. 17502048), 50 ng/mL human EGF (Thermo Fisher Scientific, cat. PHG0311), and 10 microM Y-27632 dihydrochloride (Tocris Bioscience, cat. 1254). The K12877-001-R-J1-PDC line was cultured in 6I media, which includes all 6C/Colon 1B media plus 10 ng/mL human FGF-10 (PeproTech, cat. 100-26), 1 ng/mL human FGF-2 (PeproTech, cat. 100-18B), 1 µM prostaglandin E2 (Tocris Bioscience, cat. 2296), […] hydrocortisone (Sigma-Aldrich, cat. H4001), and […] bovine insulin (Sigma-Aldrich, cat. I6634). The K86415-001-R-J1-PDC line was cultured in 6D media, which includes all 6C/Colon 1B media components minus the L-WRN conditioned media. The 485176-168-R4-J1-PDC was cultured in PANC media, which includes all 6C/Colon 1B media plus 100 ng/mL human FGF-10 (PeproTech, cat. 100-26), 500 nM SB-431542 (Selleckchem, cat. S1067), and 10 nM gastrin (Tocris Bioscience, cat. 3006). […]
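Also: spheroids exposed to compounds for 7 days before readout.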
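For viability, T/C in this document: 100% = DMSO vehicle control viability.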

IC50 (curve of first compound, second compound 0.0316 µM): 6.75 µM
IC50 (curve of first compound, second compound 0.1 µM): 6.76 µM
IC50 (curve of first compound, second compound 0.316 µM): > 10 µM
IC50 (curve of first compound, second compound 1 µM): < 0.0316 µM
IC50 (curve of first compound, second compound 3.16 µM): < 0.0316 µM
IC50 (curve of first compound, second compound 10 µM): < 0.0316 µM
Compound: CC1(O)CCCC1n1c(=O)c(C(F)F)cc2cnc(NC3CCN(S(C)(=O)=O)CC3)nc21 (centres undefined) + C#Cc1c(F)ccc2cc(O)cc(-c3ncc4c(N5CC6CCC(C5)N6)nc(OCC56CCCN5CC(F)C6)nc4c3F)c12
viability, T/C (second compound 0.0316 µM, first compound 0.0316 µM): 69.8%
viability, T/C (second compound 0.0316 µM, first compound 0.1 µM): 75%
viability, T/C (second compound 0.0316 µM, first compound 0.316 µM): 71.9%
viability, T/C (second compound 0.0316 µM, first compound 1 µM): 80.1%
viability, T/C (second compound 0.0316 µM, first compound 3.16 µM): 81.7%
viability, T/C (second compound 0.0316 µM, first compound 10 µM): 36.7%
viability, T/C (second compound 0.1 µM, first compound 0.0316 µM): 69.4%
viability, T/C (second compound 0.1 µM, first compound 0.1 µM): 72%
viability, T/C (second compound 0.1 µM, first compound 0.316 µM): 62.6%
viability, T/C (second compound 0.1 µM, first compound 1 µM): 68.7%
viability, T/C (second compound 0.1 µM, first compound 3.16 µM): 75.7%
viability, T/C (second compound 0.1 µM, first compound 10 µM): 40%
viability, T/C (second compound 0.316 µM, first compound 0.0316 µM): 56.2%
viability, T/C (second compound 0.316 µM, first compound 0.1 µM): 51.5%
viability, T/C (second compound 0.316 µM, first compound 0.316 µM): 51.2%
viability, T/C (second compound 0.316 µM, first compound 1 µM): 65.6%
viability, T/C (second compound 0.316 µM, first compound 3.16 µM): 65%
viability, T/C (second compound 0.316 µM, first compound 10 µM): 39.9%
viability, T/C (second compound 1 µM, first compound 0.0316 µM): 44.2%
viability, T/C (second compound 1 µM, first compound 0.1 µM): 38.9%
viability, T/C (second compound 1 µM, first compound 0.316 µM): 46.9%
viability, T/C (second compound 1 µM, first compound 1 µM): 50.3%
viability, T/C (second compound 1 µM, first compound 3.16 µM): 55.3%
viability, T/C (second compound 1 µM, first compound 10 µM): 36%
viability, T/C (second compound 3.16 µM, first compound 0.0316 µM): 30.1%
viability, T/C (second compound 3.16 µM, first compound 0.1 µM): 33%
viability, T/C (second compound 3.16 µM, first compound 0.316 µM): 36.5%
viability, T/C (second compound 3.16 µM, first compound 1 µM): 36.9%
viability, T/C (second compound 3.16 µM, first compound 3.16 µM): 38.5%
viability, T/C (second compound 3.16 µM, first compound 10 µM): 28.6%
viability, T/C (second compound 10 µM, first compound 0.0316 µM): 25.6%
viability, T/C (second compound 10 µM, first compound 0.1 µM): 26.6%
viability, T/C (second compound 10 µM, first compound 0.316 µM): 28%
viability, T/C (second compound 10 µM, first compound 1 µM): 28.1%
viability, T/C (second compound 10 µM, first compound 3.16 µM): 28%
viability, T/C (second compound 10 µM, first compound 10 µM): 24%

IC50 (compound alone, run of 07/15/2024): 603 nM [middle of 8 runs]
Compound: C#Cc1c(F)ccc2cc(O)cc(-c3ncc4c(N5CC6CCC(C5)N6)nc(OCC56CCCN5CC(F)C6)nc4c3F)c12 (centres undefined)
viability, T/C (compound 0.0316 µM): 87.4% [middle of 8 runs]
viability, T/C (compound 0.1 µM): 82.9% [middle of 8 runs]
viability, T/C (compound 0.316 µM): 61.2% [middle of 8 runs]
viability, T/C (compound 1 µM): 41.3% [middle of 8 runs]
viability, T/C (compound 3.16 µM): 32.1% [middle of 8 runs]
viability, T/C (compound 10 µM): 23.3% [middle of 8 runs]

From PubChem BioAssay AID2060896 (Molecular Pharmacology Branch, DTP, NCI, 2025)
